# Assay results reported in patent US20260256792A1, “TREATMENT OF CHRONIC SPONTANEOUS URTICARIA BY ADMINISTERING (R)-2-[3-[4-AMINO-3-(2-FLUORO-4-PHENOXY-PHENYL)PYRAZOLO[3,4-D]PYRIMIDIN-1-YL]PIPERIDINE-1-CARBONYL]-4-METHYL-4-[4-(OXETAN-3-YL)PIPERAZIN-1-YL]PENT-2-ENENITRILE” (priority 2023, published 2026).
# Tested on: moderate-to-severe chronic spontaneous urticaria (CSU)
# Experiment: Phase 2 CSU study: urticaria activity score over 7 days (UAS7)
# Assay type: in vivo, human
# Parameters: key to UAS7 Median / UAS7 Change from baseline Median / UAS7 change from baseline, Q1 / UAS7 change from baseline, Q3 / UAS7 change from baseline, Max / UAS7 Change from baseline LS Mean (SE): UAS7 points; daily UAS score ranges 0–6 points/day, over 7 days
# Details: ITT population
# From the text: The study comprises a 12 week, randomized, double-blind, placebo-controlled, multi-center, dose-ranging efficacy and safety phase, followed by a 40 week open label extension (OLE) phase (see FIG. 1). The study consists of three phases and an optional OLE phase. […] Clinically, CSU is characterized by the spontaneous and recurrent appearance of pruritic hives. The proposed primary endpoints were the UAS7 at Week 12 in EU and EU reference countries and the ISS7 in the US. Regardless of where a participant was from, all assessments were the same. The UAS7 score is a composite score containing both the HSS7 and the ISS7. This allowed a global assessment of the two key components of urticaria: hives and itch. […] The UAS is a validated PRO measure. […] The daily UAS scores range from 0 to 6 point/day. […] Patients were to complete the UAS using the e-diary. […] The following secondary endpoints were to be analyzed using the same approach as for the primary endpoint: • Change from baseline in UAS7 at Week 4 • Change from baseline in UAS7 at Week 12 (for US and US reference countries) • Change from baseline in ISS7 at Week 12 (except US and US reference countries) • Change from baseline in HSS7 at Week 12 The following responder secondary endpoints were to be analyzed using the Cochran-Mantel-Haenszel test adjusted by region: • Proportion of participants with UAS7<6 at Week 12 • Proportion of participants with UAS7=0 at Week 12 Participants who received selected prohibited medications and/or rescue medications were to be considered as non-responders for time points after the medication usage. For other participants, all available data including those collected during the off-treatment period were to be used to determine the responder/non-responder status. Missing data were to be considered as non-responders.
smiles,measurement,setting,value
"CC(C)(C=C(C#N)C(=O)N1CCC[C@@H](n2nc(-c3ccc(Oc4ccccc4)cc3F)c3c(N)ncnc32)C1)N1CCN(C2COC2)CC1 [rilzabrutinib, (R)-2-[3-[4-amino-3-(2-fluoro-4-phenoxy-phenyl)pyrazolo[3,4-d]pyrimidin-1-yl]piperidine-1-carbonyl]-4-methyl-4-[4-(oxetan-3-yl)piperazin-1-yl]pent-2-enenitrile]",UAS7 Change difference for rilzabrutinib vs. placebo LS Mean (95% CI),"400 mg QPM, Week 1",−3.61
same,UAS7 Change from baseline LS Mean (SE),"400 mg QPM, Week 1",−7.44
same,UAS7 Post-baseline Mean (SD),"400 mg QPM, Week 1",23.84 (8.66)
same,UAS7 % Change difference for rilzabrutinib vs. placebo LS Mean (95% CI),"400 mg QPM, Week 2",−6.32%
same,UAS7 % Change from baseline LS Mean (SE),"400 mg QPM, Week 2",−25.19%
same,UAS7 Change difference for rilzabrutinib vs. placebo LS Mean (95% CI),"400 mg QPM, Week 2",−1.80
same,UAS7 Change from baseline LS Mean (SE),"400 mg QPM, Week 2",−8.14
same,UAS7 Post-baseline Mean (SD),"400 mg QPM, Week 2",23.40 (8.85)
same,UAS7 % Change difference for rilzabrutinib vs. placebo LS Mean (95% CI),"400 mg QPM, Week 4",−5.97%
same,UAS7 % Change from baseline LS Mean (SE),"400 mg QPM, Week 4",−29.23%
same,UAS7 Change difference for rilzabrutinib vs. placebo LS Mean (95% CI),"400 mg QPM, Week 4",−1.48
same,UAS7 Change from baseline LS Mean (SE),"400 mg QPM, Week 4",−9.55
same,UAS7 Post-baseline Mean (SD),"400 mg QPM, Week 4",21.82 (8.73)
same,UAS7 % Change difference for rilzabrutinib vs. placebo LS Mean (95% CI),"400 mg QPM, Week 6",−7.24%
same,UAS7 % Change from baseline LS Mean (SE),"400 mg QPM, Week 6",−34.14%
same,UAS7 Change difference for rilzabrutinib vs. placebo LS Mean (95% CI),"400 mg QPM, Week 6",−1.88
same,UAS7 Change from baseline LS Mean (SE),"400 mg QPM, Week 6",−11.02
same,UAS7 Post-baseline Mean (SD),"400 mg QPM, Week 6",20.12 (10.28)
same,UAS7 % Change difference for rilzabrutinib vs. placebo LS Mean (95% CI),"400 mg QPM, Week 7",−7.16%
same,UAS7 % Change from baseline LS Mean (SE),"400 mg QPM, Week 7",−34.50%
same,UAS7 Change difference for rilzabrutinib vs. placebo LS Mean (95% CI),"400 mg QPM, Week 7",−1.89
same,UAS7 Change from baseline LS Mean (SE),"400 mg QPM, Week 7",−10.95
same,UAS7 Post-baseline Mean (SD),"400 mg QPM, Week 7",20.98 (9.91)
same,UAS7 % Change difference for rilzabrutinib vs. placebo LS Mean (95% CI),"400 mg QPM, Week 8",−3.38%
same,UAS7 % Change from baseline LS Mean (SE),"400 mg QPM, Week 8",−35.22%
same,UAS7 Change difference for rilzabrutinib vs. placebo LS Mean (95% CI),"400 mg QPM, Week 8",−0.53
same,UAS7 Change from baseline LS Mean (SE),"400 mg QPM, Week 8",−10.88
same,UAS7 Post-baseline Mean (SD),"400 mg QPM, Week 8",21.01 (10.40)
same,UAS7 % Change difference for rilzabrutinib vs. placebo LS Mean (95% CI),"400 mg QPM, Week 9",−8.48%
same,UAS7 % Change from baseline LS Mean (SE),"400 mg QPM, Week 9",−36.53%
same,UAS7 Change difference for rilzabrutinib vs. placebo LS Mean (95% CI),"400 mg QPM, Week 9",−1.73
same,UAS7 Change from baseline LS Mean (SE),"400 mg QPM, Week 9",−11.33
same,UAS7 Post-baseline Mean (SD),"400 mg QPM, Week 9",20.18 (10.10)
same,UAS7 % Change difference for rilzabrutinib vs. placebo LS Mean (95% CI),"400 mg QPM, Week 10",−3.82%
same,UAS7 % Change from baseline LS Mean (SE),"400 mg QPM, Week 10",−37.35%
same,UAS7 Change difference for rilzabrutinib vs. placebo LS Mean (95% CI),"400 mg QPM, Week 10",−0.76
same,UAS7 Change from baseline LS Mean (SE),"400 mg QPM, Week 10",−11.66
same,UAS7 Post-baseline Mean (SD),"400 mg QPM, Week 10",20.15 (10.55)
same,UAS7 % Change difference for rilzabrutinib vs. placebo LS Mean (95% CI),"400 mg QPM, Week 11",−5.62%
same,UAS7 % Change from baseline LS Mean (SE),"400 mg QPM, Week 11",−36.39%
same,UAS7 Change difference for rilzabrutinib vs. placebo LS Mean (95% CI),"400 mg QPM, Week 11",−0.52
same,UAS7 Change from baseline LS Mean (SE),"400 mg QPM, Week 11",−10.92
same,UAS7 Post-baseline Mean (SD),"400 mg QPM, Week 11",21.08 (11.00)
same,UAS7 % Change difference for rilzabrutinib vs. placebo LS Mean (95% CI),"400 mg QPM, Week 12",−2.09%
same,UAS7 % Change from baseline LS Mean (SE),"400 mg QPM, Week 12",−35.03%
same,UAS7 Change difference for rilzabrutinib vs. placebo LS Mean (95% CI),"400 mg QPM, Week 12",0.97
same,UAS7 Change from baseline LS Mean (SE),"400 mg QPM, Week 12",−10.22
same,UAS7 Post-baseline Mean (SD),"400 mg QPM, Week 12",21.80 (10.94)
same,UAS7 % Change difference for rilzabrutinib vs. placebo LS Mean (95% CI),"400 mg TID, Week 2",−29.83%
same,UAS7 % Change from baseline LS Mean (SE),"400 mg TID, Week 2",−48.69%
same,UAS7 Change difference for rilzabrutinib vs. placebo LS Mean (95% CI),"400 mg TID, Week 2",−8.72
same,UAS7 Change from baseline LS Mean (SE),"400 mg TID, Week 2",−15.06
same,UAS7 Post-baseline Mean (SD),"400 mg TID, Week 2",14.58 (10.74)
same,UAS7 % Change difference for rilzabrutinib vs. placebo LS Mean (95% CI),"400 mg TID, Week 3",−28.32%
same,UAS7 % Change from baseline LS Mean (SE),"400 mg TID, Week 3",−49.95%
same,UAS7 Change difference for rilzabrutinib vs. placebo LS Mean (95% CI),"400 mg TID, Week 3",−7.56
same,UAS7 Change from baseline LS Mean (SE),"400 mg TID, Week 3",−15.15
same,UAS7 Post-baseline Mean (SD),"400 mg TID, Week 3",14.42 (9.77)
same,UAS7 % Change difference for rilzabrutinib vs. placebo LS Mean (95% CI),"400 mg TID, Week 4",−25.68%
same,UAS7 % Change from baseline LS Mean (SE),"400 mg TID, Week 4",−48.94%
same,UAS7 Change difference for rilzabrutinib vs. placebo LS Mean (95% CI),"400 mg TID, Week 4",−6.71
same,UAS7 Change from baseline LS Mean (SE),"400 mg TID, Week 4",−14.78
same,UAS7 Post-baseline Mean (SD),"400 mg TID, Week 4",13.93 (9.77)
same,UAS7 % Change difference for rilzabrutinib vs. placebo LS Mean (95% CI),"400 mg TID, Week 5",−22.21%
same,UAS7 % Change from baseline LS Mean (SE),"400 mg TID, Week 5",−54.01%
same,UAS7 Change difference for rilzabrutinib vs. placebo LS Mean (95% CI),"400 mg TID, Week 5",−6.47
